Source: PMC10528299, “Targeting FAK/PYK2 with SJP1602 for Anti-Tumor Activity in Triple-Negative Breast Cancer” (Current Issues in Molecular Biology, 2023)

How the values were obtained:
BT-20 = assay: 3D spheroid assay BT-20; assay type: cell-based; details: Homo sapiens, 96 h; BT-20, 4 days treatment; read-out: IC50 3D spheroid cell viability
Procedure: (§1) Breast cancer cell lines were cultured in medium with or without 2% Matrigel (Corning, NY, USA) for 3 days in each 96-well ultra-low attachment round plate to form a single spheroid at a density of 3 × 10^3 cells/well. SJP1602 was dissolved in DMSO and treated for 4 days at concentrations ranging from 200 nM to 20 μM. Cell viability was quantified according to the manufacturer’s instructions using a CellTiter-Glo 3D cell viability assay (Promega, Madison, WI, USA). Luminescence was measured using the Tecan Spark 10M.

4T1 = assay: 3D spheroid assay 4T1; assay type: cell-based; details: Mus musculus, 96 h; 4T1, 4 days treatment; read-out: IC50 3D spheroid cell viability
Procedure: as §1

Hs578T = assay: 3D spheroid assay Hs578T; assay type: cell-based; details: Homo sapiens, Hs-578T, 96 h, 4 days treatment, read-out: IC50 3D spheroid cell viability
Procedure: as §1

BT-549 = assay: 3D spheroid assay BT-549; assay type: cell-based; details: Homo sapiens, 96 h; BT-549, 4 days treatment; read-out: IC50 3D spheroid cell viability
Procedure: as §1

Wee1(h) = target: T1, Wee1(h) (Homo sapiens, UniProt P30291); assay: Eurofins kinase profiling; assay type: biochemical; details: read-out: residual kinase activity Wee1(h)
T1 construct: purchased Eurofins KinaseProfiler
T1 sequence (P30291 whole entry): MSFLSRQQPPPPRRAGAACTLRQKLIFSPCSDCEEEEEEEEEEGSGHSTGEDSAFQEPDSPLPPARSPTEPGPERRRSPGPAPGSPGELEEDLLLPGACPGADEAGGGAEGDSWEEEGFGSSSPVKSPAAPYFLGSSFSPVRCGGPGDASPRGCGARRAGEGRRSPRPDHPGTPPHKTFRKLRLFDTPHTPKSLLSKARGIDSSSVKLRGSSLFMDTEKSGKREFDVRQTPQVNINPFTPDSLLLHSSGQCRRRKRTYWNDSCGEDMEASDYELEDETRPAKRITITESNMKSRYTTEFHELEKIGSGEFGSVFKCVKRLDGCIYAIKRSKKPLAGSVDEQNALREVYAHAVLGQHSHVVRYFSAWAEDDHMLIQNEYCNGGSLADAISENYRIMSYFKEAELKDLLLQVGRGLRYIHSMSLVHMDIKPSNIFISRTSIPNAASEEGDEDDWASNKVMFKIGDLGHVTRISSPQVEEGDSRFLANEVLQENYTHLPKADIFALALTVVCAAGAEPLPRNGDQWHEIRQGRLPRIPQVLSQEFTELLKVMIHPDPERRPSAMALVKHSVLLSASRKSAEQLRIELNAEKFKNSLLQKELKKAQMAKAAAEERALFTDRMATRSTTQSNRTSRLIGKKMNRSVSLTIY
Outline: (§2)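 Panel of 110 assays under standard conditions; these protein kinases were tested in the radiometric KinaseProfiler assay at a single 1 µM compound concentration.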

EphB4(h) = target: T2, EphB4(h) (Homo sapiens, UniProt P54760); assay: Eurofins kinase profiling; assay type: biochemical; details: read-out: residual kinase activity EphB4(h)
T2 construct: purchased Eurofins KinaseProfiler
T2 sequence (P54760 16-987): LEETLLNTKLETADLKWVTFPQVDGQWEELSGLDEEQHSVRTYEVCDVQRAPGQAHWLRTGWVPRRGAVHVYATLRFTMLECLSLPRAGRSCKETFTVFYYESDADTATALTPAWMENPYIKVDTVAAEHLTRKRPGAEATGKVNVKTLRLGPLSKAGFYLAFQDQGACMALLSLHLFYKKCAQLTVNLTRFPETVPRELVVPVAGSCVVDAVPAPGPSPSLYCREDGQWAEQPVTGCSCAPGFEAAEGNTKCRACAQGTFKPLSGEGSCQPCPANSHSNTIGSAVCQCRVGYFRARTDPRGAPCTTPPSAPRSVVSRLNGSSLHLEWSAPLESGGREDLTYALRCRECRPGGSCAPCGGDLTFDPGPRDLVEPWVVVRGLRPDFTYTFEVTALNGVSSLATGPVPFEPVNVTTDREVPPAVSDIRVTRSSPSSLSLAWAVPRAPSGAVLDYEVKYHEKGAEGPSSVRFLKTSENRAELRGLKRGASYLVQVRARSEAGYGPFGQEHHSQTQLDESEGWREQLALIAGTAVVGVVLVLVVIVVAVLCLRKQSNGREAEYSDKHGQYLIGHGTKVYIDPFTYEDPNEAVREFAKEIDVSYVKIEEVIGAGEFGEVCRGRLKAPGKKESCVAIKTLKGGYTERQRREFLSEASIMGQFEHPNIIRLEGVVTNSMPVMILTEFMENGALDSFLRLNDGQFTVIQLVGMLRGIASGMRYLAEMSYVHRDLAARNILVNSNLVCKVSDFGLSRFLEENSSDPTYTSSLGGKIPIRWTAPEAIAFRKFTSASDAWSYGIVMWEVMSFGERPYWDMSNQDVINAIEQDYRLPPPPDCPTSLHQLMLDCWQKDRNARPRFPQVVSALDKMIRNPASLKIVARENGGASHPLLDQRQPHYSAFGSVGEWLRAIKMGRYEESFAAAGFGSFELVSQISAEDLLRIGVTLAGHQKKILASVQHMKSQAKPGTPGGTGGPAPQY
Outline: as §2

ARK5(h) = target: T3, ARK5(h) (Homo sapiens, UniProt O60285); assay: Eurofins kinase profiling; assay type: biochemical; details: read-out: residual kinase activity ARK5(h)
T3 construct: purchased Eurofins KinaseProfiler
T3 sequence (O60285 1-661): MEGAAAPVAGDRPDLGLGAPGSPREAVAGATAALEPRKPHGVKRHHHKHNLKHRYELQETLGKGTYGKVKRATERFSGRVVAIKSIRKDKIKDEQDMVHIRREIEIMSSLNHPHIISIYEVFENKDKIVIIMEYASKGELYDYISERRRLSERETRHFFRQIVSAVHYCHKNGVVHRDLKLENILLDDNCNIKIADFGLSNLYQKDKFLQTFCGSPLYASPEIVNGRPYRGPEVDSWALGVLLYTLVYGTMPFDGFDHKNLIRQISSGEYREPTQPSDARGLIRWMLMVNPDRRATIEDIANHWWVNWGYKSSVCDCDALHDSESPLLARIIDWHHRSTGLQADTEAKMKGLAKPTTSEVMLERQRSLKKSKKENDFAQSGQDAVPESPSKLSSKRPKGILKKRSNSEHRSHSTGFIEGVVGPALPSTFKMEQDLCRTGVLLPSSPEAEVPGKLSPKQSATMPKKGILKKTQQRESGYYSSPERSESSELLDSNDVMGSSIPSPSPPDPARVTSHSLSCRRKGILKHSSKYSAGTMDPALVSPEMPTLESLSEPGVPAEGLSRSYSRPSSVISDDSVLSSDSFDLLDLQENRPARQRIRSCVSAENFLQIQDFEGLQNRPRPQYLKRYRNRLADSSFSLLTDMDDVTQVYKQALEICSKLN
Outline: as §2

[1] = target: T4, PI3 Kinase (p110a(E542K)/p85a)(h) (Homo sapiens, UniProt P42336, E542K); assay: Eurofins kinase profiling; assay type: biochemical; details: read-out: residual kinase activity PI3 Kinase (p110a(E542K)/p85a)(h)
T4 construct: purchased Eurofins KinaseProfiler
T4 sequence (P42336 whole entry E542K): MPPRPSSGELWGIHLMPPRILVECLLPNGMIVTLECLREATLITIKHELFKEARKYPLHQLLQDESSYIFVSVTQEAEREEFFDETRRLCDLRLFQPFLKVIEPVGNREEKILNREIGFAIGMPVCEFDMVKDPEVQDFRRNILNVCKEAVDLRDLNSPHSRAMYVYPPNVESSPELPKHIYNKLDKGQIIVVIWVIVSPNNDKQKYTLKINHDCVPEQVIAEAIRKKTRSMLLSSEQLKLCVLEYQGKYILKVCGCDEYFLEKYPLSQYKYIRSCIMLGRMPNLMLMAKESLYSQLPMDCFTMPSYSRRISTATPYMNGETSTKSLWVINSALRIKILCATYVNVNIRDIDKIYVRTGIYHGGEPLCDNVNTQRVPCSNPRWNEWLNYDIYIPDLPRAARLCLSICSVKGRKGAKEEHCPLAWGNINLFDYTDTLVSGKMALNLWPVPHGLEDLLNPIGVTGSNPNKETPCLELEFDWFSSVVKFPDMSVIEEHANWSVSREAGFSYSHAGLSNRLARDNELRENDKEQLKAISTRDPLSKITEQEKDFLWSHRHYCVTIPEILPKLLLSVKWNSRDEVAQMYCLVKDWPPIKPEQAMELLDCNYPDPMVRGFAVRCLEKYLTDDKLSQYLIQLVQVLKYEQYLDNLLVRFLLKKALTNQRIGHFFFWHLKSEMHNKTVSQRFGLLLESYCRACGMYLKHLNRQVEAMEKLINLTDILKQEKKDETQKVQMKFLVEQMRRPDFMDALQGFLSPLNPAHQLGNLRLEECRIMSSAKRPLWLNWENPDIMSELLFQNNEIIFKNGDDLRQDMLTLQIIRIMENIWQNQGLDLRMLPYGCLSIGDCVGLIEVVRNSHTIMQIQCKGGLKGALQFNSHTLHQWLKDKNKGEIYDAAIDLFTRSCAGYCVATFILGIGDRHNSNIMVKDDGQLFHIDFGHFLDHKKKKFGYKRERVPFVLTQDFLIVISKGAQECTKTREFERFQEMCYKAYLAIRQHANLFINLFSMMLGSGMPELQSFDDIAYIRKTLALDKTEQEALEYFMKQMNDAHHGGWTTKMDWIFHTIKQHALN
T4 sequence (P27986 whole entry partner): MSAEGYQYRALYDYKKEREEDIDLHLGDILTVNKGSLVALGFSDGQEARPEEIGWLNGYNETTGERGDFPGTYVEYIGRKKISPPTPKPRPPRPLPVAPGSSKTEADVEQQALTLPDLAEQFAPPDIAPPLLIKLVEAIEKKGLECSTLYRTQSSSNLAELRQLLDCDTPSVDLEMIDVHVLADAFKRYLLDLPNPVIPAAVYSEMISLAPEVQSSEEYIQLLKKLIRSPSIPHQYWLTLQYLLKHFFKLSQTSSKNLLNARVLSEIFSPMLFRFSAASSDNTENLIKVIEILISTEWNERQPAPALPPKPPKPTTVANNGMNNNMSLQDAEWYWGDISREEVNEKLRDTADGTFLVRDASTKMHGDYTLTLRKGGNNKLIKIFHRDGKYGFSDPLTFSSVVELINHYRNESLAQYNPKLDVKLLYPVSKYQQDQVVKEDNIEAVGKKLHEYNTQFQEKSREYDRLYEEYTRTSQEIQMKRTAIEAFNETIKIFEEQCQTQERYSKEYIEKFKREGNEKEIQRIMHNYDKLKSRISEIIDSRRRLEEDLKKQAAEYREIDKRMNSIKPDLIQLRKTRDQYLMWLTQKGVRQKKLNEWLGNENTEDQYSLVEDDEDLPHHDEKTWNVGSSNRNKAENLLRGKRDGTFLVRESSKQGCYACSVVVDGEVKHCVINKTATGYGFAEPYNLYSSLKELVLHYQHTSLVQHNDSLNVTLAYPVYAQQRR
Outline: as §2

Fer(h) = target: T5, Fer(h) (Homo sapiens, UniProt P16591); assay: Eurofins kinase profiling; assay type: biochemical; details: read-out: residual kinase activity Fer(h)
T5 construct: purchased Eurofins KinaseProfiler
T5 sequence (P16591 whole entry): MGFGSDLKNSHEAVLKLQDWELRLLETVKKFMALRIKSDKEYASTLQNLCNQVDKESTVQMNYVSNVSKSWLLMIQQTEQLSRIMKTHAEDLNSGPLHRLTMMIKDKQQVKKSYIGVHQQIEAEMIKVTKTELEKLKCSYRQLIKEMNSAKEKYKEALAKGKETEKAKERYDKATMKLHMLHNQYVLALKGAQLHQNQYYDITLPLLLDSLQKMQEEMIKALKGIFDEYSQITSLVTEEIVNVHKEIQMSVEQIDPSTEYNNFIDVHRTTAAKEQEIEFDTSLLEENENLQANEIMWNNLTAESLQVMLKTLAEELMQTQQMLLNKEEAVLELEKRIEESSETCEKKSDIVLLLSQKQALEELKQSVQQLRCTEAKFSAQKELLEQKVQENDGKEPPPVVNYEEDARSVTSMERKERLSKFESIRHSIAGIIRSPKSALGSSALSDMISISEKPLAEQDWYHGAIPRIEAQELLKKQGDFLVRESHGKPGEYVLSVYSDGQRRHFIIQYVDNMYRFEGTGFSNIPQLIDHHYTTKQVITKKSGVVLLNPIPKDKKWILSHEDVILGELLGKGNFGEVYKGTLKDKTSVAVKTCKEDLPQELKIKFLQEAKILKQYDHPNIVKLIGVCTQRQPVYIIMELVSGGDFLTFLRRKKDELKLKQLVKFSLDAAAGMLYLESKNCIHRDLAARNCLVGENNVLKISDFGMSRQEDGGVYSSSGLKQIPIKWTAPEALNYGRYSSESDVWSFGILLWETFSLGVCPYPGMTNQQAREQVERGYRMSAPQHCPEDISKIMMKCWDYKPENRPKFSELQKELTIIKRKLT
Outline: as §2

DNA-PK(h) = target: T6, DNA-PK(h) (Homo sapiens, UniProt P78527); assay: Eurofins kinase profiling; assay type: biochemical; details: read-out: residual kinase activity DNA-PK(h)
T6 construct: purchased Eurofins KinaseProfiler
Outline: as §2

MDA-MB-231 = assay: 3D spheroid assay MDA-MB-231; assay type: cell-based; details: Homo sapiens, 96 h; MDA-MB-231, 2% Matrigel, 4 days treatment; read-out: IC50 3D spheroid cell viability
Procedure: as §1

IC50 (BT-20)	IC50 (4T1)	IC50 (BT-549)	remaining activity at 1 µM (Wee1(h))	remaining activity at 1 µM (EphB4(h))	remaining activity at 1 µM (ARK5(h))	remaining activity at 1 µM [1]	remaining activity at 1 µM (Fer(h))	remaining activity at 1 µM (DNA-PK(h))	IC50 (MDA-MB-231)	SMILES	IC50 (Hs578T)
> 10000 nM	> 10000 nM	> 10000 nM	88%	94%	92%	97%	105%	98%	1120 nM	CONC(=O)c1ccccc1Nc1cc(Nc2cc(C)nn2C(C)C)ncc1Cl [GSK2256098]	> 10000 nM
> 10000 nM	1190 nM	> 10000 nM	72%	67%	21%	104%	31%	85%	427 nM	CNC(=O)c1ccc(Nc2ncc(C(F)(F)F)c(NCc3nccnc3N(C)S(C)(=O)=O)n2)cc1 [VS-6063, Defactinib]	4490 nM

SMILES	IC50 (BT-20)	IC50 (4T1)	IC50 (BT-549)	remaining activity at 1 µM (Wee1(h))	remaining activity at 1 µM (EphB4(h))	remaining activity at 1 µM (ARK5(h))	remaining activity at 1 µM [1]	remaining activity at 1 µM (Fer(h))	remaining activity at 1 µM (DNA-PK(h))	IC50 (MDA-MB-231)	IC50 (Hs578T)
CNC(=O)c1cccc(C)c1Nc1nc(Nc2ccc(N3CCN(C4C5CC6CC4CC(O)(C6)C5)CC3)cc2OC)ncc1C(F)(F)F (stereo not drawn) [SJP1602, 2-((2-((4-(4-((2s,5r)-5-hydroxyadamantan-2-yl)piperazin-1-yl)-2-methoxyphenyl)amino)-5-(trifluoromethyl)pyrimidin-4-yl)amino)-N,3-dimethylbenzamide]	2530 nM	184 nM	4710 nM	101%	93%	90%	101%	68%	98%	742 nM	> 10000 nM
